Results as given in ChEMBL document CHEMBL5465560, “Selectivity Literature for EUbOPEN Chemogenomic Library” (2024).
Values belong to the compound of their own block, whether it stands above or below them.

Legend:
[1] = target: Ribosomal protein S6 kinase alpha-3 (Homo sapiens, UniProt P51812); settings: at 10 µM
[2] = target: T1, Cytoplasmic tyrosine-protein kinase BMX (Homo sapiens) (UniProt P51813); test: Selectivity interaction (KinomeScan (DiscoverX)) EUB0001049a BMX; settings: at 1 µM
T1 sequence (whole entry): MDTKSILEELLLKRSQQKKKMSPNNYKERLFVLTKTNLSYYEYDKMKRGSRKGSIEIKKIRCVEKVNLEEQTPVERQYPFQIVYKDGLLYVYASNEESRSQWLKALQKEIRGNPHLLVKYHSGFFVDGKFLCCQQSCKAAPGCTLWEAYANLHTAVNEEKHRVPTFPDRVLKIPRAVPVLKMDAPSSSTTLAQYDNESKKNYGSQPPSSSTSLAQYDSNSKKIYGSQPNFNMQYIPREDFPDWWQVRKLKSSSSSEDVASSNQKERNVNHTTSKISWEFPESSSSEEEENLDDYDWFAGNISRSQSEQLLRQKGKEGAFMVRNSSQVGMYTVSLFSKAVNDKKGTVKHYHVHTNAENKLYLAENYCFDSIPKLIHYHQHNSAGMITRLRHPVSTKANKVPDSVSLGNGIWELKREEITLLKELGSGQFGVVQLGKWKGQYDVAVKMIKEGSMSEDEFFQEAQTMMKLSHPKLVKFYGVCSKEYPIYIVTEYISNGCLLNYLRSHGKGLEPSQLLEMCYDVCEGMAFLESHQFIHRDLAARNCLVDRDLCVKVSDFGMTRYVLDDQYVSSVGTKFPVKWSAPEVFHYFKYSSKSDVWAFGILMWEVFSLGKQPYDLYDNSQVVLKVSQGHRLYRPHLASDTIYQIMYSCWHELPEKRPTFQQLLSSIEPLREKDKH

[3] = target: Serine/threonine-protein kinase PAK 6 (Homo sapiens) (UniProt Q9NQU5); test: Selectivity interaction (Kinase panel (Invitrogen)) EUB0000639a PAK6; settings: at 200 nM
Sequence of Serine/threonine-protein kinase PAK 6 (Homo sapiens) (Q9NQU5 whole entry, looked up): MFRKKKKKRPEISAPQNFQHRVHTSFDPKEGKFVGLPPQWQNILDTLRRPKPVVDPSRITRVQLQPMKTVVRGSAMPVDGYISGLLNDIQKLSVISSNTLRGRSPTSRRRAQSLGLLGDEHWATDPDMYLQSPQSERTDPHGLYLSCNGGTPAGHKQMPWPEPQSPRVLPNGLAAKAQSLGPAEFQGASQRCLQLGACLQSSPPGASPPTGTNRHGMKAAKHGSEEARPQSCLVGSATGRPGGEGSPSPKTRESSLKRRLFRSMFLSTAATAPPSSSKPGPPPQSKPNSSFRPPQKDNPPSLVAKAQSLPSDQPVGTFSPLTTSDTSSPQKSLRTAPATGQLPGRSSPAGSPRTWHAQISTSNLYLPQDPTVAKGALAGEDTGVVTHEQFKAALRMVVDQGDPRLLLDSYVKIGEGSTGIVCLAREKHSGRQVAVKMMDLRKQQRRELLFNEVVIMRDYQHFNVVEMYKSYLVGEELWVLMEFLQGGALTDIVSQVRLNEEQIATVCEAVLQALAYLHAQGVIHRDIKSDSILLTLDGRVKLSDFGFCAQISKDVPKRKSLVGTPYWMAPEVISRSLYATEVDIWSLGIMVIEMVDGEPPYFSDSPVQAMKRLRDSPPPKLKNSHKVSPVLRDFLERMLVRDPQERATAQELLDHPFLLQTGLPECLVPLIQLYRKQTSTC

[4] = target: Mitogen-activated protein kinase 3 (Homo sapiens, UniProt P27361); test: Selectivity interaction (Kinase panel (Invitrogen)) EUB0000639a MAPK3; settings: at 200 nM
Sequence of Mitogen-activated protein kinase 3 (P27361 whole entry): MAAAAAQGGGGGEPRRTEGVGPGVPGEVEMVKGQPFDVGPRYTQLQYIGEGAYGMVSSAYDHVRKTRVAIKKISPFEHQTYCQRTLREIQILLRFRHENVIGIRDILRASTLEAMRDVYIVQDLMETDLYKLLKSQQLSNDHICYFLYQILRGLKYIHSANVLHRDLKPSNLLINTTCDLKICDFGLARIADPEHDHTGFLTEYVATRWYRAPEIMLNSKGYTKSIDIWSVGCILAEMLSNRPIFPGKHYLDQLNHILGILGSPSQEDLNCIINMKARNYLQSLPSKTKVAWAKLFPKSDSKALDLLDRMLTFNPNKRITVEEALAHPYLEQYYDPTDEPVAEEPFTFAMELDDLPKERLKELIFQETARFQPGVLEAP

[5] = target: T2, Serine/threonine-protein kinase tousled-like 1 (Homo sapiens) (UniProt Q9UKI8); test: Selectivity interaction (LanthaScreen Eu Kinase Binding Assay) EUB0001632a TLK1; settings: at 10 µM
T2 sequence (whole entry): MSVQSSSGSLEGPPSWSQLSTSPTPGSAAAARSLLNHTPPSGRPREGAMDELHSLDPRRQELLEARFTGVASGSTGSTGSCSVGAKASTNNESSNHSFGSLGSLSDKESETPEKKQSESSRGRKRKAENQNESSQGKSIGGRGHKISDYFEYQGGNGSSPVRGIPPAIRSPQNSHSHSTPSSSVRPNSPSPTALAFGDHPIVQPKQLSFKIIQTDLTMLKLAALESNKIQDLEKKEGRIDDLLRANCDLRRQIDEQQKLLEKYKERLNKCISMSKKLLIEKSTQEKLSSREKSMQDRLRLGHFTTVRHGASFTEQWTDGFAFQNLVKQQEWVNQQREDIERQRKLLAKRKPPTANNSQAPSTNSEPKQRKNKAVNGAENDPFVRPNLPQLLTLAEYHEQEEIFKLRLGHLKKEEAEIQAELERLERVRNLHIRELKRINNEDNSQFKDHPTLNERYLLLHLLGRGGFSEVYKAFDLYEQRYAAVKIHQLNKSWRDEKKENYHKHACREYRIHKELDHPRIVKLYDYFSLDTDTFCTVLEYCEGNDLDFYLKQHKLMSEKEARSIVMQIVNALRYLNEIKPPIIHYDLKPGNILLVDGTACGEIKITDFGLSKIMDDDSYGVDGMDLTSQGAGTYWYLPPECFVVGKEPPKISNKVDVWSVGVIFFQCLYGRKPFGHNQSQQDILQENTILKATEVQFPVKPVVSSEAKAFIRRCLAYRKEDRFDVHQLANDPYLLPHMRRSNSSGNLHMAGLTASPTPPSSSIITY

[6] = target: CDK2/Cyclin A1 (Homo sapiens) (UniProt P24941+P78396); test: (§1) Selectivity interaction (LanthaScreen Eu Kinase Binding Assay) EUB0001632a CDK2; type: protein-complex assay; settings: at 10 µM
[7] = target: CDK2/Cyclin O (Homo sapiens) (UniProt P24941+P22674); test: as §1; type: protein-complex assay; settings: at 10 µM
[8] = target: Cyclin-dependent kinase 2/cyclin E1 (Homo sapiens) (UniProt P24864+P24941); test: as §1; type: protein-complex assay; settings: at 10 µM
[9] = target: Serine/threonine-protein kinase SBK1 (Homo sapiens) (UniProt Q52WX2); test: Selectivity interaction (KinomeScan (DiscoverX)) EUB0000695a SBK1; settings: at 100 nM
Sequence of Serine/threonine-protein kinase SBK1 (Homo sapiens) (Q52WX2 whole entry): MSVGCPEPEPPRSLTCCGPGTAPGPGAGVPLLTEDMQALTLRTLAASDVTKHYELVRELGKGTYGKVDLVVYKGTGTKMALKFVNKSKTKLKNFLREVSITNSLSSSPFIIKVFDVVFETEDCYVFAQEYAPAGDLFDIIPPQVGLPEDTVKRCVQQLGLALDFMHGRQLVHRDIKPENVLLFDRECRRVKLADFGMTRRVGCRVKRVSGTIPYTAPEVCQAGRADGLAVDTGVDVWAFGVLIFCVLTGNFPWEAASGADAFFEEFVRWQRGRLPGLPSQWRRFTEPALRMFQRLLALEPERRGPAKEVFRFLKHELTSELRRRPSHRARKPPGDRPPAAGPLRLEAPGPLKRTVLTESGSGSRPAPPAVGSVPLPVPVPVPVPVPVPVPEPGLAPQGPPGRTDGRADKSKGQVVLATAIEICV

[10] = target: Calcium/calmodulin-dependent protein kinase type II subunit alpha (Homo sapiens, UniProt Q9UQM7); test: Selectivity interaction (ProQinase) EUB0000171b CAMK2A
Sequence of Calcium/calmodulin-dependent protein kinase type II subunit alpha (Q9UQM7 whole entry): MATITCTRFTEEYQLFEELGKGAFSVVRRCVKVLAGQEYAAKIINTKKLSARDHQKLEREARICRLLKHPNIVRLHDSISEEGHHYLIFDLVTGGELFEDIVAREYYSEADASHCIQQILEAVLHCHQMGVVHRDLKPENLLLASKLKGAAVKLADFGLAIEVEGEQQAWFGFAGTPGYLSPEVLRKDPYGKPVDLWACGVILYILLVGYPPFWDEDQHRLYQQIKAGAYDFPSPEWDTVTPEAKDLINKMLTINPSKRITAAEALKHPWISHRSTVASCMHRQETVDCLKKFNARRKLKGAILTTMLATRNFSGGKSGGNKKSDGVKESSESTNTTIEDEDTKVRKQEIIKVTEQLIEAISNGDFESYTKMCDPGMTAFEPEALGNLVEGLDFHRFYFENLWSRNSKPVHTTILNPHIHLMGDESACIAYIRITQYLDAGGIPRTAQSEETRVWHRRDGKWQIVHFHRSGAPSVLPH

[11] = target: T3, Aurora kinase C (Homo sapiens) (UniProt Q9UQB9); test: Selectivity interaction (KinomeScan (DiscoverX)) EUB0000655a AURKC; settings: at 10 µM
T3 sequence (whole entry): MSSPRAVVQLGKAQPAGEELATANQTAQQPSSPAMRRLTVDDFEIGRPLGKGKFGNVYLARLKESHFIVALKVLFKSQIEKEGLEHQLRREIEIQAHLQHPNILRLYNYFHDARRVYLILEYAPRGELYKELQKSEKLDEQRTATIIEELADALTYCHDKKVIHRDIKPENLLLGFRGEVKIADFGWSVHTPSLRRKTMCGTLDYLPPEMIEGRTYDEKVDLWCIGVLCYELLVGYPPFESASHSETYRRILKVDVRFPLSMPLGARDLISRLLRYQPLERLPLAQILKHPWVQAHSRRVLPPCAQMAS

[12] = target: Serine/threonine-protein kinase SIK3 (Homo sapiens) (UniProt Q9Y2K2); test: Selectivity interaction (KinomeScan (DiscoverX)) EUB0000655a SIK3; settings: at 10 µM
[13] = target: Ribosomal protein S6 kinase alpha-1 (Homo sapiens, UniProt Q15418); test: Selectivity interaction (ActivX KiNativ screen (ex vivo kinase selectivity in human PBMCs)) EUB0001619a RPS6KA1; type: cell-based; settings: PBMC, at 1 µM
Sequence of Ribosomal protein S6 kinase alpha-1 (Q15418 whole entry): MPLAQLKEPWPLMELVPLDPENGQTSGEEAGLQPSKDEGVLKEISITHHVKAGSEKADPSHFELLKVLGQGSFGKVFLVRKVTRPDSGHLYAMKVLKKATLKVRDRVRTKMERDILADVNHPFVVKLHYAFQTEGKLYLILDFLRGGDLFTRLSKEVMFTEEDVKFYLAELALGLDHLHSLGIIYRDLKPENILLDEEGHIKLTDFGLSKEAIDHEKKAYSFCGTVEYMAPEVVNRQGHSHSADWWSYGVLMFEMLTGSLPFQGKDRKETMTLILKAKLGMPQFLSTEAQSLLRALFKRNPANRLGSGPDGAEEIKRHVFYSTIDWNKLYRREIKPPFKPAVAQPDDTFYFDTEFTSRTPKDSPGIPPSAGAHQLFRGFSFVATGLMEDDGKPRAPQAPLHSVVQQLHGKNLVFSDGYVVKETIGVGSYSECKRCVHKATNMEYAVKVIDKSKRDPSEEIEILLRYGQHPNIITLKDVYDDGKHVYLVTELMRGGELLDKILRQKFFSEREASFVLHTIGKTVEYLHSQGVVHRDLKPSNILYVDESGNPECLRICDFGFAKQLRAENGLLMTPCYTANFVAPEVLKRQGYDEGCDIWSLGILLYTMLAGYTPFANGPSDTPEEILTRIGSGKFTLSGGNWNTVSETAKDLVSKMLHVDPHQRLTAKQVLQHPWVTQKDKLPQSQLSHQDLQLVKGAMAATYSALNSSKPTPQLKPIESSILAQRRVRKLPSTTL

[14] = target: Calcium/calmodulin-dependent protein kinase type II subunit delta (Homo sapiens) (UniProt Q13557); test: Selectivity interaction (KinomeScan (DiscoverX)) EUB0000607a CAMK2D; settings: at 10 µM
Sequence of Calcium/calmodulin-dependent protein kinase type II subunit delta (Homo sapiens) (Q13557 whole entry): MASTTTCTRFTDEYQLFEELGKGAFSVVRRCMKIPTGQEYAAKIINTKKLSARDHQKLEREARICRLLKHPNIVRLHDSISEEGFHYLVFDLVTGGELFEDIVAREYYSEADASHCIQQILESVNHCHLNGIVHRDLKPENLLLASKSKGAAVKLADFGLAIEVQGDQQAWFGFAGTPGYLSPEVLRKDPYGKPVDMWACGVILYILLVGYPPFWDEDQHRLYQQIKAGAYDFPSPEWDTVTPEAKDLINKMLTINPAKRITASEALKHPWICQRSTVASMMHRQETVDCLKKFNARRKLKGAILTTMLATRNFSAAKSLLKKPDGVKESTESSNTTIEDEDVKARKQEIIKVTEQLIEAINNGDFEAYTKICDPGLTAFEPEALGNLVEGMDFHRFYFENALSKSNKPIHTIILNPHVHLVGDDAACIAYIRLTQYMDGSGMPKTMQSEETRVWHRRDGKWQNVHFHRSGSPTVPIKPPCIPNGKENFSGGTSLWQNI

Sequence of Ribosomal protein S6 kinase alpha-3 (P51812 whole entry): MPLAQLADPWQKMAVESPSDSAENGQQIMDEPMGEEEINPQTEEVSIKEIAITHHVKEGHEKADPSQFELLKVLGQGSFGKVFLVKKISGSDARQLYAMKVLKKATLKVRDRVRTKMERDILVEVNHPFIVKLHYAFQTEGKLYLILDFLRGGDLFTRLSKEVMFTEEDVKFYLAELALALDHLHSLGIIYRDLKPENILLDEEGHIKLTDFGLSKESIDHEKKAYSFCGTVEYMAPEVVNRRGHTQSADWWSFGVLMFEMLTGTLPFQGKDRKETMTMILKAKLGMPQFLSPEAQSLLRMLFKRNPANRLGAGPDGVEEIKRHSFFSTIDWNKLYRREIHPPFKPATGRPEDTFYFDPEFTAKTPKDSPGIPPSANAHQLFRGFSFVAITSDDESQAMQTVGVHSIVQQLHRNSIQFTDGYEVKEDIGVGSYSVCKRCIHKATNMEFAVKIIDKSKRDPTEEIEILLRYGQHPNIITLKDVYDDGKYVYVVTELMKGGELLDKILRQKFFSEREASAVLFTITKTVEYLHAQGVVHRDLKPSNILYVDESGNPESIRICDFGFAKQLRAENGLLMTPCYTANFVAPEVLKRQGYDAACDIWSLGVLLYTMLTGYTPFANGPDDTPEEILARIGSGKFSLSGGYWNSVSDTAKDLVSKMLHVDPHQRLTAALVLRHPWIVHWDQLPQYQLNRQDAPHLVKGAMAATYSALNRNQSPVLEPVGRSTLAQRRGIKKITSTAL

Structure (SMILES): Cc1cc([C@@H](C)Nc2ccccc2C(=O)O)c2nc(N3CCOCC3)cc(=O)n2c1 [AZD-6482]
% of control [1]: 91%

Structure (SMILES): COc1cc(Nc2nc(C)cc(-c3cnn4nc(OC)ccc34)n2)cc(C(F)(F)F)c1
% of control [2]: 87%

% of inhibition [3]: 5.8%
% of inhibition [4]: 4.09%
Structure (SMILES): CC[C@@H]1[C@H](F)C(=O)N[C@@H]1COc1nccc2cc(C(N)=O)c(OC)cc12 [ZIMLOVISERTIB]

% of inhibition [5]: 5.47%
% of inhibition [6]: -33.3%
% of inhibition [7]: -162%
% of inhibition [8]: -64.3%
Structure (SMILES): Cn1cc(-n2cnc3c(NCc4nc5cc(Cl)c(Cl)cc5[nH]4)nc(N4CCOCC4)nc32)cn1

Structure (SMILES): Cc1cc(F)c(C(=O)Nc2cccc(-c3nncn3C(C)C)n2)cc1-n1cnc(C2CC2)c1
% of control [9]: 93%

% of control ([10]; at 1 µM): 90%
% of control ([10]; at 5 µM): 90%
Structure (SMILES): C=CC(=O)Nc1cccc(C(=O)Nc2ccc(Nc3cc(-c4[nH]c(SC)nc4C)ccn3)cc2)c1

Structure (SMILES): CN(C)CCOc1ccc(-c2nc(-c3ccncc3)c(-c3ccc4c(c3)CC/C4=N\O)[nH]2)cc1
% of control [11]: 100%
% of control [12]: 100%

Structure (SMILES): N#Cc1cccc(-c2c[nH]c3ncnc(N4CCOCC4)c23)c1
% of inhibition [13]: 33%

Structure (SMILES): CNC(=O)Nc1ccc(-c2nc(N3CC4CCC(C3)O4)c3cnn(C4CCC5(CC4)OCCO5)c3n2)cc1
% of control [14]: 100%
